Source: US9120749B2, “Quinoline derivatives and MELK inhibitors containing the same” (ONCOTHERAPY SCIENCE, INC., priority 2010, dated 2015)
Structures can show the parent of a compound that is named as a salt. Where two headings read alike, the source gives them in different places.

Tests used:
T47D cells = test: Cell-based assay: anti-proliferative activity, Cell Counting Kit-8, 72 hours (T47D)
In short: (§1)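 First, lysates underwent western blotting with anti-MELK antibody to establish expression. Next, cells went into 96-well plates. Then candidate inhibitors were added. Finally, viability was determined by CCK-8 at 72 h and IC50 computed.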

MELK = MELK (Homo sapiens, UniProt Q14680); test: Kinase assay: MELK activity, phosphorylation of FITC-labeled histone H3 peptide measured by IMAP fluorescence polarization; format: biochemical; conditions: read-out: IC50 (μM) (kinase assay)
Chain of MELK (Q14680 whole entry, looked up): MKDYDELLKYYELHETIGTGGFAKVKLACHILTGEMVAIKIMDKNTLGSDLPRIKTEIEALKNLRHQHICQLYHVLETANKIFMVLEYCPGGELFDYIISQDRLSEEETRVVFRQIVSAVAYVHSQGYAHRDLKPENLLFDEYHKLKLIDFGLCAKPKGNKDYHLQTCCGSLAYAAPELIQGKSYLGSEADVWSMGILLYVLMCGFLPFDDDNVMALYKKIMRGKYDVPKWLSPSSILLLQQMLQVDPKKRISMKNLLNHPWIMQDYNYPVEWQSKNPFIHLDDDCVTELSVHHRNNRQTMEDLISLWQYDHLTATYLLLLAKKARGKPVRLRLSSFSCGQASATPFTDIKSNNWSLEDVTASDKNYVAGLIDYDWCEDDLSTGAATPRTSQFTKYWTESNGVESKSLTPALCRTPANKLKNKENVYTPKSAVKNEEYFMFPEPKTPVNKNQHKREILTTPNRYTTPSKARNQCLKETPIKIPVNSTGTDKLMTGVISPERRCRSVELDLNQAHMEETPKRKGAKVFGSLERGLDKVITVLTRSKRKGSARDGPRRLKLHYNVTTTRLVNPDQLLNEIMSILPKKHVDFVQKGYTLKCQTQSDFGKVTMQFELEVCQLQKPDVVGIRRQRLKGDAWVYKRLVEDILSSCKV
In short: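 Kinase reactions ran with or without test compound (final DMSO 1%) on a fluorescein-tagged H3 peptide. Progressive binding solution was added to terminate them. After a half-hour room-temperature incubation, polarization was measured.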

A549 cells = test: Cell-based assay: anti-proliferative activity, Cell Counting Kit-8, 72 hours (A549)
In short: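 Cell Counting Kit-8 read-out of A549 growth after 72 hours of inhibitor exposure, cells plated in 96-well format. Values reported as IC50.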

HT-1197 cells = test: Cell-based assay: anti-proliferative activity, Cell Counting Kit-8, 72 hours (HT-1197, negative control without MELK expression)
In short: as §1

BT-549 cells = test: Cell-based assay: anti-proliferative activity, Cell Counting Kit-8, 72 hours (BT-549); conditions: BT549 cells, MELK-expressing, Cell Counting Kit-8 at 72 hours
Procedure: To evaluate the expression status of MELK in several cell lines, western blot analysis was performed using crude cell lysate collected from those cells. Anti-MELK antibody (clone 31, BD Biosciences) was used to visualize the expression.
Active candidate inhibitors against MELK were evaluated for their target-specific cytotoxicity using T47D, A549, BT-549, and HT-1197 cells was used for negative control. 100 micro-L of cell suspension was seeded onto 96-well microtiter plate (ViewPlate-96FTC, PerkinElmer). The initial cell concentration of T47D, A549, BT-549, and HT-1197 were 3,000 cells/well, 2,000 cells/well and 2,500 cells/well, respectively. Cellular growth was determined using Cell Counting Kit-8 (DOJINDO) at 72 hours after the exposure of the candidate inhibitors. […] Accurate IC50 values were calculated as described previously.

22Rv1 cells = test: Cell-based assay: anti-proliferative activity, Cell Counting Kit-8, 72 hours (22Rv1); conditions: Homo sapiens, 22Rv1, 72 h
DU4475 cells = test: Cell-based assay: anti-proliferative activity, Cell Counting Kit-8, 72 hours (DU4475); conditions: Homo sapiens, DU-4475, 72 h
[1] = Homo sapiens, T47D, 72 h, MELK-expressing, Cell Counting Kit-8 at 72 hours
[2] = 50 micro-M ATP, FITC-labeled histone H3 peptide substrate, IMAP fluorescence polarization
[3] = Homo sapiens, A549, 72 h, MELK-expressing, Cell Counting Kit-8 at 72 hours
[4] = Homo sapiens, HT1197, 72 h, HT1197 cells, no MELK expression (negative control), Cell Counting Kit-8 at 72 hours
[5] = MELK-expressing, Cell Counting Kit-8 at 72 hours, dihydrochloride

Row | SMILES | IC50 (T47D cells; [1]) | IC50 (MELK; [2]) | IC50 (A549 cells; [3]) | IC50 (HT-1197 cells; [4]) | IC50 (BT-549 cells; Homo sapiens, BT-549, 72 h) | further results
1 | COc1cc(-c2ccc3ncc(C(=O)C4CC4)c(N4CCC(CN(C)C)CC4)c3c2)ccc1O [Example 133, Cyclopropyl[4-{4-[(dimethylamino)methyl]piperidin-1-yl}-6-(4-hydroxy-3-methoxyphenyl)quinolin-3-yl]methanone] | 0.7 µM | 0.0036 µM | 0.79 µM | 1.9 µM | 1.7 µM | –
2 | COc1cc(-c2ccc3ncc(C(=O)C4CC4)c(N4CCC(CN5CCCC5)CC4)c3c2)cc(Cl)c1O [Example 280, {6-(3-Chloro-4-hydroxy-5-methoxyphenyl)-4-[4-(pyrrolidin-1-ylmethyl)piperidin-1-yl]quinolin-3-yl}(cyclopropyl)methanone] | 0.25 µM | 0.0017 µM | 0.2 µM | 2.9 µM | 0.71 µM | –
3 | CCN(CC)[C@H]1CC[C@@H](Nc2c(C(=O)C3CC3)cnc3ccc(-c4cc(Cl)c(O)c(OC)c4)cc23)CC1 [Example 311, {6-(3-Chloro-4-hydroxy-5-methoxyphenyl)-4-[cis-4-(diethylamino)cyclohexylamino]quinolin-3-yl}(cyclopropyl)methanone] | 0.51 µM | 0.0032 µM | 0.21 µM | 7.6 µM | 1.5 µM | –
4 | COc1cc(-c2ccc3ncc(C(=O)C4CC4)c(NC[C@H]4CC[C@H](N(C)C)CC4)c3c2)cc(Cl)c1O [Example 315] | 0.64 µM | 0.0043 µM | 0.3 µM | 3 µM | 1.4 µM | –
5 | CCOc1cc(-c2ccc3ncc(C(=O)C4CC4)c(N4CCC(CN(C)C)CC4)c3c2)ccc1O [Example 353, Cyclopropyl[4-{4-[(dimethylamino)methyl]piperidin-1-yl}-6-(3-ethoxy-4-hydroxyphenyl)quinolin-3-yl]methanone] | 0.61 µM | 0.0017 µM | 0.68 µM | 2.5 µM | 1.5 µM | –
6 | CC(=O)c1cnc2ccc(-c3cc(Cl)c(O)c(Cl)c3)cc2c1N[C@H]1CC[C@H](N)CC1 [Example 256, 1-{4-[trans-4-Aminocyclohexylamino]-6-(3,5-dichloro-4-hydroxyphenyl)quinolin-3-yl}ethanone] | 0.064 µM | 0.0041 µM | 0.44 µM | 100 µM | 0.31 µM | –
7 | COc1cc(-c2ccc3ncc(C(=O)CC(C)C)c(N[C@H]4CC[C@H](N(C)C)CC4)c3c2)cc(Cl)c1O [Example 348, 1-{6-(3-Chloro-4-hydroxy-5-methoxyphenyl)-4-[trans-4-(dimethylamino)cyclohexylamino]quinolin-3-yl}-3-methylbutan-1-one] | 0.41 µM | 0.0043 µM | 0.47 µM | 3 µM | 0.93 µM | –
8 | CC(C1CCN(c2c(C(=O)C3CC3)cnc3ccc(-c4cc(F)c(O)c(Cl)c4)cc23)CC1)N(C)C (centres unmarked) [Example 269, [6-(3-Chloro-5-fluoro-4-hydroxyphenyl)-4-{4-[1-(dimethylamino)ethyl]piperidin-1-yl}quinolin-3-yl](cyclopropyl)methanone] | 0.22 µM | 0.0037 µM | 0.44 µM | 1.3 µM | 0.5 µM | –
9 | CCN(CC)C1CCC(Nc2c(C(=O)C3CC3)cnc3ccc(-c4cc(Cl)c(O)c(OC)c4)cc23)CC1 (centres unmarked) [Example 185(b), {6-(3-Chloro-4-hydroxy-5-methoxyphenyl)-4-[4-(diethylamino)cyclohexylamino]quinolin-3-yl}(cyclopropyl)methanone dihydrochloride] | – | – | – | – | – | IC50 (T47D cells; [5]): 0.49 µM; IC50 (A549 cells; [5]): 0.18 µM; IC50 (HT-1197 cells; HT1197 cells, no MELK expression (negative control), Cell Counting Kit-8 at 72 hours, dihydrochloride): 4.7 µM; IC50 (BT-549 cells; dihydrochloride): 1 µM
10 | CCC(=O)c1cnc2ccc(-c3cc(F)c(O)c(Cl)c3)cc2c1Nc1ccc(CN(C)C)cc1 [Example 770, 1-(6-(3-chloro-5-fluoro-4-hydroxyphenyl)-4-((4-((dimethylamino)methyl)phenyl)amino)quinolin-3-yl)propan-1-one] | – | – | – | – | – | IC50 (T47D cells; Homo sapiens, T47D, 72 h): 0.074 µM; IC50 (MELK): 0.015 µM; IC50 (22Rv1 cells): 0.17 µM; IC50 (A549 cells; Homo sapiens, A549, 72 h, 72 hours): 0.11 µM; IC50 (HT-1197 cells; Homo sapiens, HT1197, 72 h, HT1197 cells (negative control, no MELK expression), 72 hours): 0.84 µM; IC50 (DU4475 cells): 0.062 µM
